# Data as given in PMC5101133 (Nature biotechnology, 2016).
# Key:
# Test in all cases: NADH fluorescence
# Assay type in all cases: biochemical
# Details in all cases: 1 mM NAD+, 50 mM Tris pH 8.0, 150 mM NaCl, 0.1% Triton X-100
# [1] = target: T1, ALDH3A1 (Homo sapiens, UniProt P30838)
# T1 sequence (P30838 1-453): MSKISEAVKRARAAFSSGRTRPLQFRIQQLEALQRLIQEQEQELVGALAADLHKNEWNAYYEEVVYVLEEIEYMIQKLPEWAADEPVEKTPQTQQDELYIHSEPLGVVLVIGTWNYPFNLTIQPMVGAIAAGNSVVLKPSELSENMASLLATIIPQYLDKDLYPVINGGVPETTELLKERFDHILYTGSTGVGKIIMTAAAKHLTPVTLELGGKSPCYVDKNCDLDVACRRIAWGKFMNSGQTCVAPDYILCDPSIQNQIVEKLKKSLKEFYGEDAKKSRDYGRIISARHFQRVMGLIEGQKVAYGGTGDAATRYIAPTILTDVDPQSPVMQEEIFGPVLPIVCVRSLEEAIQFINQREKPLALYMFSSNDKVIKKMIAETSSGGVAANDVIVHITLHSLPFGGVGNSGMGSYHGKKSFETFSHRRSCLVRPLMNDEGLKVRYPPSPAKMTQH
# [2] = target: T2, Hfd1p^CΔ25 (MBP-Hfd1^CΔ25) (Saccharomyces cerevisiae, UniProt Q04458)
# T2 sequence (Q04458 1-507): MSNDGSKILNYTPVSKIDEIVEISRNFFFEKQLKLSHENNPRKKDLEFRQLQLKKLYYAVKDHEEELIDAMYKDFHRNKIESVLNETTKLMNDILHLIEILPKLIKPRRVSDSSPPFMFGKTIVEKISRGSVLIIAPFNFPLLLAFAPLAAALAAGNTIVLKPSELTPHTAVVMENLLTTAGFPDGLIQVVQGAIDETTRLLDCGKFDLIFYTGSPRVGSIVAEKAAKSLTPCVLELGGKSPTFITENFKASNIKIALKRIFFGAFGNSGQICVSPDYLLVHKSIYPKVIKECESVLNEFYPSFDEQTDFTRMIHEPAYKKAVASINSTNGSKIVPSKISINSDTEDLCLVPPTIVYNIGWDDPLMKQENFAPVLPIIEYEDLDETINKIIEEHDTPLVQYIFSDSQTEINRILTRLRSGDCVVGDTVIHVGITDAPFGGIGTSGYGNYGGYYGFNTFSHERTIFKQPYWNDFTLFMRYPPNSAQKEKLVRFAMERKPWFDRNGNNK
# [3] = target: ALDH3A2^CΔ25 (FALDH) (Homo sapiens, UniProt P51648)
# Chain of ALDH3A2^CΔ25 (FALDH) (P51648 1-460, stated change not applied): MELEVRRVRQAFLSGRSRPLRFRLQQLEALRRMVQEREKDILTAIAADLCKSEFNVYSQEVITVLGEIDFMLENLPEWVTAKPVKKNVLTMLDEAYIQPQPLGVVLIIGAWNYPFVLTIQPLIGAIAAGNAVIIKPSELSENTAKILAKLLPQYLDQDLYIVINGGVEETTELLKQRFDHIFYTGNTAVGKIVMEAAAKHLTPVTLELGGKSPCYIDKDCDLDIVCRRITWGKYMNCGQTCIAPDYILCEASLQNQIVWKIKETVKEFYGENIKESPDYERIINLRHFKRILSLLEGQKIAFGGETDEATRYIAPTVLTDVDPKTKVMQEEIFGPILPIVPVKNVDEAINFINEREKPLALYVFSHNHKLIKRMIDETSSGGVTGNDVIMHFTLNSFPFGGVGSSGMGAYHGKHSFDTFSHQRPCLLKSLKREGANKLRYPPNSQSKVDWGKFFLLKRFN
Structure (SMILES),KM [1],KM [2],KM [3]
O=Cc1ccc(O)cc1 [4-HBz],Hfd1p and ALDH3A1 show a preference for 4-HBz,WT Hfd1p catalyzes NAD^+-dependent dehydrogenation of 4-HBz,
CCCCCCCCCCCCCCCC=O [hexadecanal],,"we observed Hfd1p activity in vitro with hexadecanal, similar to that observed with 4-HBz",ALDH3A2 shows a strong substrate preference for hexadecanal over 4-HBz
